Test results reported in ChEMBL document CHEMBL1909046, “DrugMatrix in vitro pharmacology data”.
pIC50, pKi: −log10 of the molar value.

How the values were obtained:
[1] = biological target: Sigma non-opioid intracellular receptor 1 (Homo sapiens, UniProt Q99720); experiment: DRUGMATRIX: Sigma1 radioligand binding (ligand: [3H] Haloperidol); type: cell membranes, Jurkat, Membrane; conditions: Not Active = under 50% inhibition at 10 µM; for IC50: jurkat; for pIC50: read-out: IC50; for pKi: read-out: Ki
Estrogen receptor = biological target: T1, Estrogen receptor (Homo sapiens, UniProt P03372); conditions: sf9; note: in other assays of this panel Not Active means under 50% inhibition at 10 µM
T1 sequence (P03372 whole entry): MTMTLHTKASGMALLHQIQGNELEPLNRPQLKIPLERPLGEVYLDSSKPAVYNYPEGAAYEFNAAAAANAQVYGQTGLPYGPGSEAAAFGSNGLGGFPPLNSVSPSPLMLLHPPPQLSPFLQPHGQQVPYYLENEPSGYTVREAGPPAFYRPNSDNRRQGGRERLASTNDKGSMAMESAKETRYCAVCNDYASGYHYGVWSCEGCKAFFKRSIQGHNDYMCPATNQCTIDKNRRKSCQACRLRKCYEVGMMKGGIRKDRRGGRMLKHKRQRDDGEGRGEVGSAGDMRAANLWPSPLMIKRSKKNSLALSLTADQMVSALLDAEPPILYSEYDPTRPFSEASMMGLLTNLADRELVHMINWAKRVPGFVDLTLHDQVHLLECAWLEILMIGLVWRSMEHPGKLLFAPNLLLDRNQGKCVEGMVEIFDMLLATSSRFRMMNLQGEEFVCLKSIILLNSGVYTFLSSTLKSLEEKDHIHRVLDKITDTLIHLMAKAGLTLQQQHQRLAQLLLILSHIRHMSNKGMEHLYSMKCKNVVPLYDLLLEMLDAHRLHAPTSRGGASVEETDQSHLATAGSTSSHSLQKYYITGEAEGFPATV

[2] = biological target: T2, Neuropeptide Y receptor type 1 (Homo sapiens, UniProt P25929); type: cell membranes, Membrane; conditions: sk-n-mc; note: in other assays of this panel Not Active means under 50% inhibition at 10 µM
T2 sequence (P25929 whole entry): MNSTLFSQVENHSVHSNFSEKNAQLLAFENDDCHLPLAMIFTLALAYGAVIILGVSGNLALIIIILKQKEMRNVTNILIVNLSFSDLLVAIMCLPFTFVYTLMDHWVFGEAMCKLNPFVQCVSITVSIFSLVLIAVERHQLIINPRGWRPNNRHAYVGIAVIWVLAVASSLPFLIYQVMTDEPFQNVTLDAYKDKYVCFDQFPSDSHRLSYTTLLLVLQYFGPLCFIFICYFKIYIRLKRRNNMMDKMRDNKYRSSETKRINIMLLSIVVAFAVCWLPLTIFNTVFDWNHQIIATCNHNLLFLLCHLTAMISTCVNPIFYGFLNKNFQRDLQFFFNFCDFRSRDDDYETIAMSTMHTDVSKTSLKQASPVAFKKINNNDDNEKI

Melanocortin receptor 5 = Melanocortin receptor 5 (Homo sapiens, UniProt P33032); type: cell membranes, HEK293, Membrane; conditions: hek293; note: in other assays of this panel Not Active means under 50% inhibition at 10 µM
[3] = DRUGMATRIX: Atrial Natriuretic Factor (ANF) radioligand binding (ligand: [125I] ANF (rat)); type: cell membranes, Cavia porcellus, Dunkin-Hartley, Adrenal gland, Membrane; conditions: Not Active = under 50% inhibition at 10 µM
[4] = biological target: Sodium-dependent dopamine transporter (Homo sapiens, UniProt Q01959); experiment: DRUGMATRIX: Dopamine Transporter radioligand binding (ligand: [125I] RTI-55); type: cell membranes, CHO-K1, Membrane; conditions: cho-k1; Not Active = under 50% inhibition at 10 µM
Cytochrome P450 3A4 = Cytochrome P450 3A4 (Homo sapiens, UniProt P08684); conditions: bti-tn-5b1-4; note: in other assays of this panel Not Active means under 50% inhibition at 10 µM
Cytochrome P450 3A4, sequence (P08684 whole entry): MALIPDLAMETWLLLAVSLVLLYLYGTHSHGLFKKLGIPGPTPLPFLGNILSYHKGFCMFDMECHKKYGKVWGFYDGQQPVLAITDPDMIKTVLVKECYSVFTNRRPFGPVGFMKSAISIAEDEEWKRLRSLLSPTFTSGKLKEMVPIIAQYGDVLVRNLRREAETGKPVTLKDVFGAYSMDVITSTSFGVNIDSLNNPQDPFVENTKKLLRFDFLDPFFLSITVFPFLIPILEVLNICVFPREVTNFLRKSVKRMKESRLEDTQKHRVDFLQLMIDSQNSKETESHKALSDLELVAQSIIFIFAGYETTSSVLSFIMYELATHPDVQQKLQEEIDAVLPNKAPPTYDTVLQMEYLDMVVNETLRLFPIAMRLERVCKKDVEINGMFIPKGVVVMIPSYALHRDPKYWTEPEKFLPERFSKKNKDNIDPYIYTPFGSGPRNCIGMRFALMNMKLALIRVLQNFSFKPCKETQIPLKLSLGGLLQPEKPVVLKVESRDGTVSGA

Melanocortin receptor 5, sequence (P33032 whole entry): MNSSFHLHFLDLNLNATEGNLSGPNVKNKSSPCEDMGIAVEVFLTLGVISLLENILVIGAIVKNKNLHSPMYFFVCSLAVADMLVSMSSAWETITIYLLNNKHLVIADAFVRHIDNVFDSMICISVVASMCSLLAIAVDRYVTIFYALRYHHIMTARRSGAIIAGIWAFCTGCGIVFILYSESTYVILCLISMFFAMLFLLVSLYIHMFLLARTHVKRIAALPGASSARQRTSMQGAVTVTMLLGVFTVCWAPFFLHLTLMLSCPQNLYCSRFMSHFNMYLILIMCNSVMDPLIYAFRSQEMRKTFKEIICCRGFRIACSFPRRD
Sigma non-opioid intracellular receptor 1, sequence (Q99720 whole entry): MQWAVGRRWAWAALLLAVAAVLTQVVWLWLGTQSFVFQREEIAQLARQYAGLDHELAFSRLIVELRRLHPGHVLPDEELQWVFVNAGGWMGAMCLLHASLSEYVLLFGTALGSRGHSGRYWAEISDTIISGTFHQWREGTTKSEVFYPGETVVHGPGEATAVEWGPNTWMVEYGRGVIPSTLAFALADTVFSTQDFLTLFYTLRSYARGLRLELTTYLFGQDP
Sodium-dependent dopamine transporter, sequence (Q01959 whole entry): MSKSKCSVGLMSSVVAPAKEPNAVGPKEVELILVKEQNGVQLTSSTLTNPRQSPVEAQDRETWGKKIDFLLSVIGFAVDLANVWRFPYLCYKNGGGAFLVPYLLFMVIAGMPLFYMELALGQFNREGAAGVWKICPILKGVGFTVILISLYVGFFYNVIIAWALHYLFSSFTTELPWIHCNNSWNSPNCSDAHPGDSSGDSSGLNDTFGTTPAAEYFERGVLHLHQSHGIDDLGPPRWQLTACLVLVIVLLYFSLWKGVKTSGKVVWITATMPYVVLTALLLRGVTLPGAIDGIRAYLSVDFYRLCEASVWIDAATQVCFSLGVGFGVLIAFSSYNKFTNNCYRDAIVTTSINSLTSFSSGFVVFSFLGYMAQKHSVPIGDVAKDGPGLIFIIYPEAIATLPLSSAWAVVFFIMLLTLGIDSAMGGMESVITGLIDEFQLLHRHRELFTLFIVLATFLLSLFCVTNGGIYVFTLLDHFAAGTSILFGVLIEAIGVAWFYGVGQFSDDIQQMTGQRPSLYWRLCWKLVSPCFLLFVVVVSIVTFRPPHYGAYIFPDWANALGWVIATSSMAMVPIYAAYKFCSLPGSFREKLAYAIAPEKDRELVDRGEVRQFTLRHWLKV

| Compound | IC50 [1] | IC50 (Estrogen receptor) | IC50 [2] | IC50 (Melanocortin receptor 5) | IC50 [3] | Ki [3] | IC50 [4] | IC50 (Cytochrome P450 3A4) | Ki (Cytochrome P450 3A4) | pIC50 [1] | pKi [1] | Ki [2] |
| --- | --- | --- | --- | --- | --- | --- | --- | --- | --- | --- | --- | --- |
| NCCCNCCSP(=O)(O)O [AMIFOSTINE] | Not Active | Not Active | Not Active | Not Active | Not Active | Not Active | Not Active | Not Active | Not Active |  |  |  |
| CN(C)CCC=C1c2ccccc2CCc2ccccc21 [AMITRIPTYLINE] |  | Not Active | Not Active | Not Active | Not Active | Not Active | Not Active | Not Active | Not Active | 5.99 | 6.36 |  |
| CC(=O)Oc1ccccc1C(=O)O [ASPIRIN] | Not Active | Not Active | Not Active | Not Active | Not Active | Not Active | Not Active | Not Active | Not Active |  |  |  |
| CC(=O)OC[C@H]1O[C@@H](n2ncc(=O)[nH]c2=O)[C@H](OC(C)=O)[C@@H]1OC(C)=O [AZARIBINE] | Not Active | Not Active | Not Active | Not Active | Not Active | Not Active | Not Active | Not Active | Not Active |  |  |  |
| O=C(O)CCNC(=O)c1ccc(/N=N/c2ccc(O)c(C(=O)O)c2)cc1 [BALSALAZIDE] | Not Active | Not Active | Not Active | Not Active | Not Active | Not Active | Not Active | Not Active | Not Active |  |  |  |
| ClC(Cl)(Cl)Cl [CARBON TETRACHLORIDE] | Not Active | Not Active | Not Active | Not Active | Not Active | Not Active | Not Active | Not Active | Not Active |  |  |  |
| CNC1=Nc2ccc(Cl)cc2C(c2ccccc2)=[N+]([O-])C1 [CHLORDIAZEPOXIDE] | Not Active | Not Active | Not Active | Not Active | Not Active | Not Active | Not Active | Not Active | Not Active |  |  |  |
| CCCNC(=O)NS(=O)(=O)c1ccc(Cl)cc1 [CHLORPROPAMIDE] | Not Active | Not Active | Not Active | Not Active | Not Active | Not Active | Not Active | Not Active | Not Active |  |  |  |
| O=C(O)CC(O)(CC(=O)O)C(=O)O [CITRIC ACID] | Not Active | Not Active | Not Active | Not Active | Not Active | Not Active | Not Active | Not Active | Not Active |  |  |  |
| CC(C)NCC(O)c1ccccc1Cl (stereo unspecified) [CLORPRENALINE] | Not Active | Not Active | Not Active | Not Active | Not Active | Not Active | Not Active | Not Active | Not Active |  |  |  |
| CN1C[C@@H]2C[C@H]1CN2c1cc2c(cc1F)c(=O)c(C(=O)O)cn2C1CC1 [DANOFLOXACIN] | Not Active | Not Active | Not Active | Not Active | Not Active | Not Active | Not Active | Not Active | Not Active |  |  |  |
| O=C(O)c1cc(-c2ccc(F)cc2F)ccc1O [DIFLUNISAL] | Not Active | Not Active |  | Not Active | Not Active | Not Active | Not Active | Not Active | Not Active |  |  | Not Active |
| CC1=NN(c2ccccc2)C(=O)C1 [EDARAVONE] | Not Active | Not Active | Not Active | Not Active | Not Active | Not Active | Not Active | Not Active | Not Active |  |  |  |
| CN1CCN(c2c(F)cc3c(=O)c(C(=O)O)cn(CCF)c3c2F)CC1 [FLEROXACIN] | Not Active | Not Active | Not Active | Not Active | Not Active | Not Active | Not Active | Not Active | Not Active |  |  |  |
| O=c1[nH]c(=O)n([C@H]2C[C@H](O)[C@@H](CO)O2)cc1F [FLOXURIDINE] | Not Active | Not Active | Not Active | Not Active | Not Active | Not Active | Not Active | Not Active | Not Active |  |  |  |
| COC(=O)Nc1nc2cc(C(=O)c3ccc(F)cc3)ccc2[nH]1 [FLUBENDAZOLE] | Not Active | Not Active | Not Active | Not Active | Not Active | Not Active | Not Active | Not Active | Not Active |  |  |  |
| CC(=O)OCC(=O)[C@@]1(O)CC[C@H]2[C@@H]3CCC4=CC(=O)CC[C@]4(C)[C@@]3(F)[C@@H](O)C[C@@]21C [FLUDROCORTISONE ACETATE] | Not Active | Not Active | Not Active | Not Active | Not Active | Not Active | Not Active | Not Active | Not Active |  |  |  |
| CCOC(=O)c1ncn2c1CN(C)C(=O)c1cc(F)ccc1-2 [FLUMAZENIL] | Not Active | Not Active | Not Active | Not Active | Not Active | Not Active | Not Active | Not Active | Not Active |  |  |  |
| Cc1ccc(C)c(OCCCC(C)(C)C(=O)O)c1 [GEMFIBROZIL] | Not Active | Not Active | Not Active | Not Active | Not Active | Not Active | Not Active | Not Active | Not Active |  |  |  |
| CCC1=C(C)CN(C(=O)NCCc2ccc(S(=O)(=O)NC(=O)N[C@H]3CC[C@H](C)CC3)cc2)C1=O [GLIMEPIRIDE] | Not Active | Not Active | Not Active | Not Active | Not Active | Not Active | Not Active | Not Active | Not Active |  |  |  |
| Nc1cc(-c2ccncc2)c[nH]c1=O [INAMRINONE] | Not Active | Not Active | Not Active | Not Active | Not Active | Not Active | Not Active | Not Active | Not Active |  |  |  |
| CCCCC1=NC2(CCCC2)C(=O)N1Cc1ccc(-c2ccccc2-c2nnn[nH]2)cc1 [IRBESARTAN] | Not Active | Not Active | Not Active | Not Active | Not Active | Not Active | Not Active | Not Active | Not Active |  |  |  |
| CN1CCC(=C2c3ccccc3CC(=O)c3sccc32)CC1 [KETOTIFEN] | Not Active | Not Active | Not Active | Not Active | Not Active | Not Active | Not Active | Not Active | Not Active |  |  |  |
| CCn1cc(C(=O)O)c(=O)c2cc(F)c(N3CCNC(C)C3)c(F)c21 (stereo unspecified) [LOMEFLOXACIN] | Not Active | Not Active | Not Active | Not Active | Not Active | Not Active | Not Active | Not Active | Not Active |  |  |  |
| CN1CCCC(CN2c3ccccc3Sc3ccccc32)C1 (stereo unspecified) [MEPAZINE] |  | Not Active | Not Active | Not Active | Not Active | Not Active | Not Active | Not Active | Not Active | 6.74 | 7.12 |  |
| Cc1cccc(C)c1NC(=O)C1CCCCN1C (stereo unspecified) [MEPIVACAINE] | Not Active | Not Active | Not Active | Not Active | Not Active | Not Active | Not Active | Not Active | Not Active |  |  |  |
